ChEMBL document CHEMBL4627276, “CT2-3, a novel magnolol analogue suppresses NSCLC cells through triggering cell cycle arrest and apoptosis” (Bioorg Med Chem, 2020)
Activity calls are given as the source filed them. The rule behind the calls is not given here.

Legend:
NCI-H460 [1] = assay: Antiproliferative activity against human H460 cells assessed as inhibition of cell viability at 40 uM incubated for 24 hrs by CCK-8 assay; format: functional, cell-based
A549 [2] = assay: Antiproliferative activity against human A549 cells assessed as inhibition of cell viability at 40 uM incubated for 24 hrs by CCK-8 assay; format: functional, cell-based
A549 [3] = assay: Inhibition of colony formation in human A549 cells at 20 uM incubated for 48 hrs and measured after 10 days culturing in normal media by Giemsa staining based inverted microscopy; format: functional, cell-based
A549 [4] = assay: Antiproliferative activity against human A549 cells assessed as inhibition of cell viability incubated for 24 hrs by CCK-8 assay; format: functional, cell-based; settings: for IC50: A549, 24 h
NCI-H460 [5] = assay: Antiproliferative activity against human H460 cells assessed as inhibition of cell viability incubated for 24 hrs by CCK-8 assay; format: functional, cell-based; settings: for IC50: NCI-H460, 24 h
NCI-H460 [6] = assay: Inhibition of colony formation in human H460 cells at 20 uM incubated for 48 hrs and measured after 10 days culturing in normal media by Giemsa staining based inverted microscopy; format: functional, cell-based
NCI-H460 [7] = assay: Induction of apoptosis in human H460 cells assessed as necrotic cell at 20 uM incubated for 24 hrs by Annexin V-FITC/propidium iodide staining based flow cytometric method (reference value: 2.1%); format: functional
A549 [8] = assay: Antiproliferative activity against human A549 cells assessed as cell viability at 40 uM incubated for 24 hrs by CCK-8 assay; format: functional; settings: A549, 24 h, read-out: Activity
NCI-H460 [9] = assay: Cell cycle arrest in human H460 cells assessed as accumulation of cells at G1 phase at 40 uM incubated for 24 hrs by PI staining based flow cytometric analysis; format: functional
NCI-H460 [10] = assay: Induction of apoptosis in human H460 cells assessed as late apoptotic cells at 20 uM incubated for 24 hrs by Annexin V-FITC/propidium iodide staining based flow cytometric method (reference value: 4.3%); format: functional
NCI-H460 [11] = assay: Induction of apoptosis in human H460 cells assessed as early apoptotic cells at 20 uM incubated for 24 hrs by Annexin V-FITC/propidium iodide staining based flow cytometric method (reference value: 2.4%); format: functional
NCI-H460 [12] = assay: Downregulation of Cyclin D1 mRNA expression in human H460 cells at 40 uM after 24 hrs by RT-qPCR analysis; format: functional, cell-based
A549 [13] = assay: Induction of apoptosis in human A549 cells assessed as live cells at 40 uM incubated for 24 hrs by Annexin V-FITC/propidium iodide staining based flow cytometric method (reference value: 95.6%); format: functional
NCI-H460 [14] = assay: Induction of apoptosis in human H460 cells assessed as late apoptotic cells at 40 uM incubated for 24 hrs by Annexin V-FITC/propidium iodide staining based flow cytometric method (reference value: 4.3%); format: functional
NCI-H460 [15] = assay: Induction of ROS generation in human H460 cells incubated for 24 hrs by DCFH-DA staining based fluorescence microscopy; format: functional, cell-based
NCI-H460 [16] = assay: Downregulation of TOP3B mRNA expression in human H460 cells incubated for 24 hrs by RT-qPCR analysis; format: functional, cell-based
NCI-H460 [17] = assay: Induction of apoptosis in human H460 cells assessed as live cells at 40 uM incubated for 24 hrs by Annexin V-FITC/propidium iodide staining based flow cytometric method (reference value: 91.2%); format: functional
NCI-H460 [18] = assay: Induction of apoptosis in human H460 cells assessed as live cells at 20 uM incubated for 24 hrs by Annexin V-FITC/propidium iodide staining based flow cytometric method (reference value: 91.2%); format: functional
NCI-H460 [19] = assay: Downregulation of CDK6 mRNA expression in human H460 cells at 40 uM after 24 hrs by RT-qPCR analysis; format: functional, cell-based
NCI-H460 [20] = assay: Induction of apoptosis in human H460 cells assessed as necrotic cell at 40 uM incubated for 24 hrs by Annexin V-FITC/propidium iodide staining based flow cytometric method (reference value: 2.1%); format: functional
A549 [21] = assay: Induction of ROS generation in human A549 cells incubated for 24 hrs by DCFH-DA staining based fluorescence microscopy; format: functional, cell-based
NCI-H460 [22] = assay: Downregulation of TOP2B mRNA expression in human H460 cells incubated for 24 hrs by RT-qPCR analysis; format: functional, cell-based
A549 [23] = assay: Induction of apoptosis in human A549 cells assessed as late apoptotic cells at 40 uM incubated for 24 hrs by Annexin V-FITC/propidium iodide staining based flow cytometric method (reference value: 1.7%); format: functional
A549 [24] = assay: Induction of apoptosis in human A549 cells assessed as early apoptotic cells at 20 uM incubated for 24 hrs by Annexin V-FITC/propidium iodide staining based flow cytometric method (reference value: 0.3%); format: functional
NCI-H460 [25] = assay: Antiproliferative activity against human H460 cells assessed as cell viability at 40 uM incubated for 24 hrs by CCK-8 assay; format: functional; settings: NCI-H460, 24 h, read-out: Activity
NCI-H460 [26] = assay: Downregulation of CDK4 mRNA expression in human H460 cells at 40 uM after 24 hrs by RT-qPCR analysis; format: functional, cell-based
NCI-H460 [27] = assay: Downregulation of c-Myc protein expression level in human H460 cells at 40 uM incubated for 24 hrs by western blot analysis; format: functional, cell-based
[28] = Cytotoxicity against mouse MFF cells assessed as inhibition of cell viability after 24 hrs; format: cell-based
NCI-H460 [29] = assay: Induction of apoptosis in human H460 cells assessed as early apoptotic cells at 40 uM incubated for 24 hrs by Annexin V-FITC/propidium iodide staining based flow cytometric method (reference value: 2.4%); format: functional
NCI-H460 [30] = assay: Downregulation of TOP3B protein expression in human H460 cells at 40 uM incubated for 24 hrs by western blot analysis; format: functional, cell-based
A549 [31] = assay: Induction of apoptosis in human A549 cells assessed as necrotic cell at 20 uM incubated for 24 hrs by Annexin V-FITC/propidium iodide staining based flow cytometric method (reference value: 2.4%); format: functional
A549 [32] = assay: Induction of apoptosis in human A549 cells assessed as necrotic cell at 40 uM incubated for 24 hrs by Annexin V-FITC/propidium iodide staining based flow cytometric method (reference value: 2.4%); format: functional
A549 [33] = assay: Induction of apoptosis in human A549 cells assessed as early apoptotic cells at 40 uM incubated for 24 hrs by Annexin V-FITC/propidium iodide staining based flow cytometric method (reference value: 0.3%); format: functional
NCI-H460 [34] = assay: Downregulation of TOP2B protein expression in human H460 cells at 40 uM incubated for 24 hrs by western blot analysis; format: functional, cell-based
NCI-H460 [35] = assay: Downregulation of c-Myc mRNA expression level in human H460 cells incubated for 24 hrs by RT-qPCR analysis; format: functional, cell-based
A549 [36] = assay: Induction of apoptosis in human A549 cells assessed as live cells at 20 uM incubated for 24 hrs by Annexin V-FITC/propidium iodide staining based flow cytometric method (reference value: 95.6%); format: functional
A549 [37] = assay: Induction of apoptosis in human A549 cells assessed as late apoptotic cells at 20 uM incubated for 24 hrs by Annexin V-FITC/propidium iodide staining based flow cytometric method (reference value: 1.7%); format: functional

Q: For `C=CCc1ccc(O)c(-c2cc(CC=C)ccc2OCCSCCCCN2C(=O)c3ccccc3C2=O)c1`, which Activity (NCI-H460 [1]) is on record?
A: inactive

Q: What about the Activity (A549 [2]) of the same compound?
A: inactive

Q: Which Activity (NCI-H460 [1]) does the source give for `C=CCc1ccc(O)c(-c2cc(CC=C)ccc2OCCS(=O)(=O)CCCCN2C(=O)c3ccccc3C2=O)c1` here?
A: inactive

Q: And the Activity (A549 [2])?
A: inactive

Q: For `C=CCc1ccc(O)c(-c2cc(CC=C)ccc2O)c1` [MAGNOLOL], which Activity (NCI-H460 [1]) is on record?
A: inactive

Q: And the inhibition (A549 [3])?
A: inactive

Q: And the IC50 (A549 [4])?
A: > 80 µM

Q: What about the IC50 (NCI-H460 [5]) of the same compound?
A: > 80 µM

Q: And the inhibition (NCI-H460 [6])?
A: inactive

Q: And the Activity (A549 [2])?
A: inactive

Q: For `C=CCc1ccc(O)c(-c2cc(CC=C)ccc2OCC[S+]([O-])CCCCN2C(=O)c3ccccc3C2=O)c1` (configuration not stated), which Activity (NCI-H460 [7]) is on record?
A: 7.9%

Q: And the viability at 40 µM (A549 [8])?
A: 51%

Q: What about the Activity (NCI-H460 [9]) of the same compound?
A: Active

Q: What about the Activity (NCI-H460 [10]) of the same compound?
A: 18.6%

Q: What about the Activity (NCI-H460 [11]) of the same compound?
A: 6.8%

Q: What about the inhibition (NCI-H460 [12]) of the same compound?
A: Active

Q: And the Activity (A549 [13])?
A: 56.7%

Q: And the Activity (NCI-H460 [14])?
A: 38.1%

Q: What about the Activity (NCI-H460 [15]) of the same compound?
A: Dose-dependent effect

Q: And the inhibition (NCI-H460 [16])?
A: Active

Q: And the Activity (NCI-H460 [17])?
A: 46.6%

Q: What about the inhibition (A549 [3]) of the same compound?
A: Active

Q: What about the Activity (NCI-H460 [18]) of the same compound?
A: 66.7%

Q: And the inhibition (NCI-H460 [19])?
A: Active

Q: What about the Activity (NCI-H460 [20]) of the same compound?
A: 9.6%

Q: And the Activity (A549 [21])?
A: Dose-dependent effect

Q: And the inhibition (NCI-H460 [22])?
A: Active

Q: What about the Activity (A549 [23]) of the same compound?
A: 34.5%

Q: What about the Activity (A549 [24]) of the same compound?
A: 1.9%

Q: What about the viability at 40 µM (NCI-H460 [25]) of the same compound?
A: 48.4%

Q: And the inhibition (NCI-H460 [26])?
A: Active

Q: What about the inhibition (NCI-H460 [27]) of the same compound?
A: Active

Q: What about the Activity [28] of the same compound?
A: Non-Toxic

Q: What about the Activity (NCI-H460 [29]) of the same compound?
A: 5.7%

Q: What about the inhibition (NCI-H460 [30]) of the same compound?
A: Active

Q: And the inhibition (A549 [4])?
A: Dose-dependent effect

Q: And the IC50 (A549 [4])?
A: 41.6 µM

Q: What about the Activity (A549 [31]) of the same compound?
A: 3%

Q: What about the Activity (A549 [32]) of the same compound?
A: 8%

Q: What about the inhibition (NCI-H460 [5]) of the same compound?
A: Dose-dependent effect

Q: And the IC50 (NCI-H460 [5])?
A: 38 µM

Q: What about the Activity (A549 [33]) of the same compound?
A: 0.8%

Q: What about the inhibition (NCI-H460 [34]) of the same compound?
A: Active

Q: And the inhibition (NCI-H460 [35])?
A: Active

Q: What about the Activity (A549 [36]) of the same compound?
A: 83.2%

Q: What about the inhibition (NCI-H460 [6]) of the same compound?
A: Active

Q: What about the Activity (A549 [37]) of the same compound?
A: 11.9%
